These results are taken from patent publication US9206130B2, “Quinoline derivatives as AXL kinase inhibitors” (Max-Planck-Gesellschaft zur Förderung der Wissenschaften …, priority 2008, dated 2015).

The target in data set [1] is T1, wild type AXL (wtAXL) receptor tyrosine kinase (Homo sapiens, UniProt P30530).
T1 construct: WtAXL cDNA was cloned into vector pLXSN(ESK) and transfected into Phoenix E packaging cells; expressed in transfected cells; host or cells: NIH3T3 N7 mouse fibroblasts, retrovirally infected (clone 22)
T1 sequence (P30530 26-894): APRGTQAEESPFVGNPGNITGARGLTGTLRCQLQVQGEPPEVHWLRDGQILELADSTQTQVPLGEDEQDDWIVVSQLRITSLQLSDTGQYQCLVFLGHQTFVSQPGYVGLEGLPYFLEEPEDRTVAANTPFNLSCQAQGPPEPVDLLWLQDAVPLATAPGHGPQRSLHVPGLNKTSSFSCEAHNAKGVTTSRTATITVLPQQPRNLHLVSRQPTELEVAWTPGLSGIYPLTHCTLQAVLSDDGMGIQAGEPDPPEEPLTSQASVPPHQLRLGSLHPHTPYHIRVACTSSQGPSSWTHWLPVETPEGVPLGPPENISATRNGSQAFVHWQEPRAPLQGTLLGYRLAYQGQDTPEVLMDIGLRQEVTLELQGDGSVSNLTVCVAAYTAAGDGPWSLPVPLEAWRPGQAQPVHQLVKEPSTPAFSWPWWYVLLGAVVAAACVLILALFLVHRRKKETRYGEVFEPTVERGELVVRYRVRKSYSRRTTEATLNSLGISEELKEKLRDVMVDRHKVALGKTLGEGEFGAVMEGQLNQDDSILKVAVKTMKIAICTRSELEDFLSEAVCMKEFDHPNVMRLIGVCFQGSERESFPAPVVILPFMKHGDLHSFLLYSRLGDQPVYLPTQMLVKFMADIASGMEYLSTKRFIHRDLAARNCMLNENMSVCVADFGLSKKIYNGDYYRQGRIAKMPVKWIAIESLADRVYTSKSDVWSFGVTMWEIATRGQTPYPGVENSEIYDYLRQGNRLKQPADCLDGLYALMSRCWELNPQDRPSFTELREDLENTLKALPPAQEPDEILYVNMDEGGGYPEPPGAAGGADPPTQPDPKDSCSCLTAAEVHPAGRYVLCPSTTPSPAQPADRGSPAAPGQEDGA
Briefly: NIH-3T3-AXL cellular tyrosine kinase assay (inhibition of AXL phosphorylation). The note with it: AXL phosphorylation in NIH-3T3-AXL (clone 22) cells, serum-depleted, 2 h with compound, immunoprecipitation / anti-phosphotyrosine blot. The data set is classed as cell-based. Summed up:
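NIH3T3 clones stably expressing human wtAXL (puromycin-selected) were exposed to serially diluted compounds for 2 h. AXL was immunoprecipitated from lysates with anti-AXL antibody, and phosphorylation detected by anti-phosphotyrosine (4G10) western blot with ECL.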

Some results are limits rather than exact numbers.

Broadly, the IC50 is the concentration needed to halve the response being measured. Broadly, the melting point is the temperature, or range, at which the solid turns liquid. In turn, `COc1cc2nccc(Oc3ccc(NS(=O)(=O)c4ccc5c(c4)CC(=O)N5C)cc3)c2cc1OC` [Example A85, 1-Methyl-2-oxo-2,3-dihydro-1H-indole-5-sulfonic acid [4-(6,7-dimethoxy-quinolin-4-yloxy)-phenyl]-amide] came in with a melting point of 119 to 122 °C. The half-inhibitory concentration (IC50) in data set [1] is > 3 µM.

Compound `Cc1cc(Oc2ccc(NS(=O)(=O)c3ccsc3)cc2)c2cc(F)ccc2n1` [Example B16, Thiophene-3-sulfonic acid [4-(6-fluoro-2-methyl-quinolin-4-yloxy)-phenyl]-amide] had a melting point of 195 to 196 °C. Moreover, the IC50 in data set [1] was > 10 µM.

Compound `COc1cc2nccc(Oc3ccc(NS(=O)(=O)c4ccc5c(c4)CC(=O)N5C)c(F)c3)c2cc1OC` [Example A137, 1-Methyl-2-oxo-2,3-dihydro-1H-indole-5-sulfonic acid [4-(6,7-dimethoxy-quinolin-4-yloxy)-2-fluoro-phenyl]-amide] had a melting point of 195 to 197 °C. In addition, the IC50 in data set [1] was > 10 µM.

On to `COc1cc2nccc(Oc3ccc(NS(=O)(=O)c4ccccc4F)c(F)c3)c2cc1OC` [Example A59, N-[4-(6,7-Dimethoxy-quinolin-4-yloxy)-2-fluoro-phenyl]-2-fluoro-benzenesulfonamide], for which the melting point was 235 to 236 °C. The IC50 in data set [1] is > 1 µM.

As to `COc1cc2nccc(Oc3ccc(NS(=O)(=O)c4cccc(Cl)c4)c(F)c3)c2cc1OC` [Example A25, 3-Chloro-N-[4-(6,7-dimethoxy-quinolin-4-yloxy)-2-fluoro-phenyl]-benzenesulfonamide], the melting point was in the range of 250 to 251 °C. Besides, the IC50 in data set [1] is 2.38 µM.

The compound `Cc1cc(Oc2ccc(NS(=O)(=O)c3cnc(C)[nH]3)cc2F)c2cccc(C(F)(F)F)c2n1` [Example C13, 2-Methyl-3H-imidazole-4-sulfonic acid [3-fluoro-4-(2-methyl-8-trifluoromethyl-quinolin-4-yloxy)-phenyl]-amide] returned a melting point of 258 to 259 °C. For the same compound, the IC50 in data set [1] was > 1 µM.

As for `Cc1cc(Oc2ccc(NS(=O)(=O)c3ccc(OCc4c(C)noc4C)cc3)cc2F)c2cccc(C(F)(F)F)c2n1` [Example C14, 4-(3,5-Dimethyl-isoxazol-4-ylmethoxy)-N-[3-fluoro-4-(2-methyl-8-trifluoromethyl-quinolin-4-yloxy)-phenyl]-benzenesulfonamide], the melting point fell in the range of 193 to 195 °C. The IC50 in data set [1] is > 10 µM.

In turn, `COc1ccc(S(=O)(=O)Nc2ccc(Oc3ccnc4cc(OC)c(OC)cc34)cc2)cc1Cl` [Example A67, 3-Chloro-N-[4-(6,7-dimethoxy-quinolin-4-yloxy)-phenyl]-4-methoxy-benzenesulfonamide] came in with a melting point of 226 to 227 °C. The IC50 in data set [1] is > 10 µM.

Consider `COc1cc2nccc(Oc3ccc(NS(=O)(=O)c4cc(F)ccc4F)c(C)c3)c2cc1OC` [Example A151, N-[4-(6,7-Dimethoxy-quinolin-4-yloxy)-2-methyl-phenyl]-2,5-difluoro-benzenesulfonamide], for which the melting point was 259 to 260 °C. In data set [1], the IC50 is > 10 µM.

In the case of `COc1cc2c(Oc3ccc(NS(=O)(=O)c4ccccc4F)cc3F)ccnc2cc1OCCCN1CCCC(C)C1` (stereo not drawn) [Example D30, 2-Fluoro-N-(3-fluoro-4-{6-methoxy-7-[3-(3-methyl-piperidin-1-yl)-propoxy]-quinolin-4-yloxy}-phenyl)-benzenesulfonamide], the melting point lay in the range of 102 to 106 °C. Also, the IC50 in data set [1] came to 0.082 µM.

Consider `COc1cc2nccc(Oc3ccc(NS(=O)(=O)c4cccc5ccccc45)cc3C)c2cc1OC` [Example A77, Naphthalene-1-sulfonic acid [4-(6,7-dimethoxy-quinolin-4-yloxy)-3-methyl-phenyl]-amide], for which the melting point was in the range of 118 to 120 °C. The IC50 in data set [1] was > 10 µM.

Regarding `COc1cc2nccc(Oc3ccc(NS(=O)(=O)c4c(F)cccc4F)c(F)c3)c2cc1OC` [Example A14, N-[4-(6,7-Dimethoxy-quinolin-4-yloxy)-2-fluoro-phenyl]-2,6-difluoro-benzenesulfonamide], the melting point was 223 to 225 °C. Moreover, the IC50 in data set [1] is 1.4 µM.

For the compound `COc1cc2nccc(Oc3ccc(NS(=O)(=O)c4ccc5c(c4)CC(=O)N5C)cc3OC)c2cc1OC` [Example A145, 1-Methyl-2-oxo-2,3-dihydro-1H-indole-5-sulfonic acid [4-(6,7-dimethoxy-quinolin-4-yloxy)-3-methoxy-phenyl]-amide], the melting point was 150 to 152 °C. Further, the IC50 in data set [1] is > 10 µM.

`COc1cc2c(Oc3ccc(NS(=O)(=O)c4ccccc4OC(F)(F)F)cc3F)ccnc2cc1OCCCNC(=O)OC(C)(C)C` [Example D16, (3-{4-[2-Fluoro-4-(2-trifluoromethoxy-benzenesulfonylamino)-phenoxy]-6-methoxy-quinolin-7-yloxy}-propyl)-carbamic acid tert-butyl ester] displayed a melting point of 181 to 183 °C. For the same compound, the IC50 in data set [1] worked out at 0.271 µM.

For the compound `COc1cc2nccc(Oc3ccc(NS(=O)(=O)c4ccc(Br)cc4OC(F)(F)F)cc3)c2cc1OC` [Example A149, 4-Bromo-N-[4-(6,7-dimethoxy-quinolin-4-yloxy)-phenyl]-2-trifluoromethoxy-benzenesulfonamide], the melting point was in the range of 237 to 239 °C. Moreover, in data set [1], the IC50 is > 3 µM.

`COc1cc2nccc(Oc3ccc(NS(=O)(=O)c4cccc(Oc5ccccc5)c4)cc3C)c2cc1OC` [Example A76, N-[4-(6,7-Dimethoxy-quinolin-4-yloxy)-3-methyl-phenyl]-3-phenoxy-benzenesulfonamide]: the melting point lay in the range of 115 to 117 °C. Moreover, in data set [1], the IC50 is > 10 µM.

For `COc1cc2nccc(Oc3ccc(NS(=O)(=O)c4ccccc4OC(F)(F)F)c(C)c3)c2cc1OC` [Example A112, N-[4-(6,7-Dimethoxy-quinolin-4-yloxy)-2-methyl-phenyl]-2-trifluoromethoxy-benzenesulfonamide], the melting point was 230 to 232 °C. In addition, the IC50 in data set [1] was > 3 µM.

Turning to `COc1cc2nccc(Oc3ccc(NS(=O)(=O)c4cc(C)c(C)cc4OC)c(F)c3)c2cc1OC` [Example A64, N-[4-(6,7-Dimethoxy-quinolin-4-yloxy)-2-fluoro-phenyl]-2-methoxy-4,5-dimethyl-benzenesulfonamide], the melting point was in the range of 238 to 240 °C. In addition, the IC50 in data set [1] is > 1 µM.

`Cc1cc(Oc2ccc(NS(=O)(=O)c3ccc(-c4cnco4)s3)cc2)c2cc(F)ccc2n1` [Example B19, 5-Oxazol-5-yl-thiophene-2-sulfonic acid [4-(6-fluoro-2-methyl-quinolin-4-yloxy)-phenyl]-amide] displayed a melting point of 164 to 166 °C. Besides, the IC50 in data set [1] came to 8 µM.

`CCCCS(=O)(=O)Nc1ccc(Oc2ccnc3cc(OC)c(OC)cc23)cc1F` [Example A71, Butane-1-sulfonic acid [4-(6,7-dimethoxy-quinolin-4-yloxy)-2-fluoro-phenyl]-amide] returned a melting point of 164 to 166 °C. In data set [1], the IC50 is > 3 µM.

`COc1cc2c(Oc3ccc(NS(=O)(=O)c4cccc(-c5ccccc5)c4)cc3F)ccnc2cc1OCCN1CCOCC1` [Example D04, Biphenyl-3-sulfonic acid {3-fluoro-4-[6-methoxy-7-(2-morpholin-4-yl-ethoxy)-quinolin-4-yloxy]-phenyl}-amide] showed a melting point of 103 to 104 °C. Also, the IC50 in data set [1] is 0.32 µM.
